Experimental findings from ChEMBL document CHEMBL1201862, “PubChem BioAssay data set” (2004) are described below.

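Protocol summary: plate cells (96-well), add compound at 5 concentrations, incubate 48 h, interpolate endpoints linearly. Abbreviation: GI50, concentration required for 50% inhibition of growth.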 The source made the active and inactive calls. No stated cut-off is given here; in the data, active = GI50 up to about 1.1 µM and inactive = higher.

Some test systems named below: SK-MEL-28; LOX IMVI; SF-268; UACC-257; NCI-H522; KM12; MDA-MB-231; SK-MEL-5; OVCAR-4; BT-549; A498; K562; HOP-62; SNB-19; OVCAR-5; OVCAR-3; ACHN; SF-539; RXF 393.
Experiment in all cases: NCI anticancer screen, dose series, 48 h

Turning to `COC(=O)/C=C(/C(=O)OC)c1cc2ccc3c([nH]c4ccccc43)c(C)c-2c1`, the GI50 in the assay with SK-MEL-28 was 5.55 µM (inactive); with LOX IMVI, 3.66 µM (inactive); in the assay with SF-268 it was 4.26 µM (inactive); in the assay with UACC-257 it was 6.95 µM (inactive); in the assay with NCI-H522, 2.54 µM (inactive); in the assay with KM12, 3.73 µM (inactive). In addition, the GI50 in the assay on MDA-MB-231 was 3.8 µM (inactive); with SK-MEL-5 it was 2.88 µM (inactive); in the assay with OVCAR-4, 4.95 µM (inactive); in the assay on BT-549 it was 4.78 µM (inactive); in the assay on A498, 8.04 µM (inactive); in the assay with K562, 2.54 µM (inactive). In addition, the GI50 in the assay on HOP-62 was 12.1 µM (inactive); with SNB-19, 9.29 µM (inactive); with OVCAR-5, 3.56 µM (inactive); in the assay on OVCAR-3 it was 3.4 µM (inactive); in the assay on ACHN, 6.61 µM (inactive); with SF-539 it was 11.4 µM (inactive). For the same compound, the GI50 in the assay with RXF 393 is 7.31 µM (inactive).

In the case of `Cc1[nH]c2ccccc2c1-c1cc(-c2cc(-c3c(C)[nH]c4ccccc34)on2)no1`, the GI50 was > 100 µM (inactive) in the assay on SK-MEL-28; 55 µM (inactive) with LOX IMVI; 52.7 µM (inactive) in the assay with SF-268; 43.1 µM (inactive) in the assay with UACC-257; 34.3 µM (inactive) in the assay on NCI-H522; 42.6 µM (inactive) in the assay on KM12. Besides, the GI50 was > 100 µM (inactive) in the assay with MDA-MB-231; 38.5 µM (inactive) in the assay on SK-MEL-5; > 100 µM (inactive) in the assay on OVCAR-4; > 100 µM (inactive) in the assay with BT-549; > 100 µM (inactive) in the assay with A498; 56.6 µM (inactive) in the assay on K562. Besides, the GI50 in the assay with HOP-62 was 85.9 µM (inactive); in the assay with SNB-19, > 100 µM (inactive); with OVCAR-5, > 100 µM (inactive); with OVCAR-3 it was 40.6 µM (inactive); in the assay with ACHN, > 100 µM (inactive); in the assay with SF-539, 49 µM (inactive). Besides, the GI50 in the assay on RXF 393 is 37.7 µM (inactive).

Take `COc1cc2oc(=O)cc(C)c2cc1[N+](=O)[O-]`: the GI50 in the assay with SK-MEL-28 is 22.6 µM (inactive); in the assay with LOX IMVI, 12.2 µM (inactive); in the assay on SF-268 it was 17.5 µM (inactive); in the assay on UACC-257, 16.3 µM (inactive); with NCI-H522, 11.6 µM (inactive); with KM12, 25.7 µM (inactive). The GI50 in the assay with MDA-MB-231 is 22.4 µM (inactive); with SK-MEL-5 it was 27.3 µM (inactive); in the assay with OVCAR-4 it was 35.1 µM (inactive); with BT-549 it was 16.7 µM (inactive); with A498, 28.4 µM (inactive); in the assay on K562, 22.4 µM (inactive). The GI50 was 41.6 µM (inactive) in the assay on HOP-62; > 83.6 µM (inactive) in the assay with SNB-19; 28.1 µM (inactive) in the assay on OVCAR-5; 25.4 µM (inactive) in the assay on OVCAR-3; 28.1 µM (inactive) in the assay on ACHN; 23.8 µM (inactive) in the assay on SF-539. Besides, the GI50 in the assay with RXF 393 was 15.1 µM (inactive).

On to `COc1ccc(OC)c(C2CCc3c(cnc4nc(N)nc(N)c34)C2)c1` (stereo not given), for which the GI50 was 13.7 µM (inactive) in the assay with SK-MEL-28; 1.32 µM (inactive) in the assay on LOX IMVI; 4.21 µM (inactive) with SF-268; 4.28 µM (inactive) in the assay with UACC-257; 6.24 µM (inactive) with NCI-H522; 11.4 µM (inactive) with KM12. Besides, the GI50 is 12.2 µM (inactive) in the assay on MDA-MB-231; 11 µM (inactive) in the assay on SK-MEL-5; 10.2 µM (inactive) with OVCAR-4; 14.3 µM (inactive) with BT-549; 12.3 µM (inactive) in the assay with A498; 0.573 µM (active) in the assay with K562. Also, the GI50 is 12.2 µM (inactive) in the assay with HOP-62; 6.92 µM (inactive) with SNB-19; 4.7 µM (inactive) in the assay on OVCAR-5; 15.5 µM (inactive) with OVCAR-3; 3.91 µM (inactive) in the assay with ACHN; 22.8 µM (inactive) with SF-539. In addition, the GI50 in the assay with RXF 393 was 15.8 µM (inactive).

Take `CC1=CC(=O)c2c(O)cccc2C1=O` [PLUMBAGIN]: the GI50 in the assay on SK-MEL-28 is 1.82 µM (inactive); with LOX IMVI, 1.81 µM (inactive); with SF-268 it was 2.17 µM (inactive); in the assay on UACC-257, 1.81 µM (inactive); with NCI-H522, 1.57 µM (inactive); in the assay on KM12, 6.17 µM (inactive). For the same compound, the GI50 in the assay on MDA-MB-231 was 1.92 µM (inactive); in the assay on SK-MEL-5 it was 1.62 µM (inactive); in the assay with OVCAR-4, 1.76 µM (inactive); with BT-549, 1.7 µM (inactive); in the assay with A498, 5.86 µM (inactive); with K562, 0.391 µM (active). Moreover, the GI50 in the assay with HOP-62 was 5.52 µM (inactive); in the assay on SNB-19, 12 µM (inactive); with OVCAR-5 it was 1.94 µM (inactive); with OVCAR-3, 1.03 µM (active); in the assay with ACHN, 1.6 µM (inactive); in the assay on SF-539, 1.91 µM (inactive). The GI50 in the assay with RXF 393 was 1.64 µM (inactive).

Turning to `COc1ccc(-c2cc3c(nn2)-c2ccccc2C3=O)cc1`, the GI50 in the assay on SK-MEL-28, in the assay on LOX IMVI, in the assay on SF-268, in the assay on UACC-257, with NCI-H522 and in the assay on KM12 was > 10 µM (inactive) in each case. For the same compound, the GI50 in the assay on MDA-MB-231, in the assay with SK-MEL-5, with OVCAR-4, with BT-549, in the assay with A498 and in the assay on K562 was > 10 µM (inactive) in each case. Moreover, the GI50 in the assay with HOP-62, in the assay on SNB-19, with OVCAR-5, in the assay with OVCAR-3, in the assay with ACHN and in the assay with SF-539 was > 10 µM (inactive) in each case. For the same compound, the GI50 in the assay with RXF 393 was > 10 µM (inactive).

Consider `Nc1nc(Cl)cc(NCC2(O)CC(CO)C2)n1` (stereo not given), for which the GI50 in the assay on SK-MEL-28, with LOX IMVI, with SF-268, in the assay on UACC-257, in the assay on NCI-H522 and in the assay on KM12 was > 100 µM (inactive) in each case. The GI50 in the assay on MDA-MB-231, in the assay with SK-MEL-5, with OVCAR-4, with BT-549, with A498 and in the assay on K562 was > 100 µM (inactive) throughout. Besides, the GI50 with HOP-62, with SNB-19, with OVCAR-5, with OVCAR-3, with ACHN and in the assay on SF-539 was > 100 µM (inactive) in each case. In addition, in the assay with RXF 393, the GI50 is > 100 µM (inactive).

As for `O=C(CCc1ccccc1)NCCc1ccc(O)c(O)c1`, the GI50 in the assay on SK-MEL-28 is 45.6 µM (inactive); in the assay with LOX IMVI, 35.6 µM (inactive); in the assay with SF-268, 33.8 µM (inactive); in the assay with UACC-257 it was 44.6 µM (inactive); in the assay on NCI-H522, 5.26 µM (inactive); in the assay on KM12, 34.8 µM (inactive). Also, the GI50 with MDA-MB-231 was 24.8 µM (inactive); in the assay with SK-MEL-5 it was 16.7 µM (inactive); in the assay with OVCAR-4 it was 10.4 µM (inactive); in the assay with BT-549, 7.01 µM (inactive); in the assay with A498 it was 78.2 µM (inactive); in the assay with K562, 7.11 µM (inactive). Further, the GI50 with HOP-62 was > 40.6 µM (inactive); in the assay with SNB-19 it was 48.9 µM (inactive); with OVCAR-5 it was > 31.6 µM (inactive); with OVCAR-3, 22.2 µM (inactive); with ACHN, 14.2 µM (inactive); in the assay on SF-539 it was 23.2 µM (inactive). Besides, the GI50 in the assay on RXF 393 was > 100 µM (inactive).

Consider `COc1cc2c(cc1OCCCCN1C(=O)c3cccc4cccc(c34)C1=O)N=C[C@@H]1CCCN1C2=O`, for which the GI50 was 11.7 µM (inactive) in the assay on SK-MEL-28; 3.83 µM (inactive) in the assay on LOX IMVI; 4.92 µM (inactive) in the assay with SF-268; 7.05 µM (inactive) in the assay on UACC-257; 1.68 µM (inactive) in the assay on NCI-H522; 3.57 µM (inactive) in the assay with KM12. Also, the GI50 in the assay with MDA-MB-231 is 3.53 µM (inactive); with SK-MEL-5, 2.01 µM (inactive); with OVCAR-4 it was 3.27 µM (inactive); in the assay with BT-549, 3.52 µM (inactive); in the assay with A498, 7.66 µM (inactive); with K562, 4.15 µM (inactive). Further, the GI50 in the assay on HOP-62 is 7.73 µM (inactive); with SNB-19, 6.17 µM (inactive); in the assay on OVCAR-5 it was 4.95 µM (inactive); with OVCAR-3, 3.4 µM (inactive); in the assay with ACHN, 2.22 µM (inactive); in the assay on SF-539 it was 2.55 µM (inactive). Also, the GI50 in the assay with RXF 393 is 2.09 µM (inactive).

Regarding `CC1(C)C=C(/C=C2/N(S(=O)(=O)C(F)(F)F)C(/C=C3/N(S(=O)(=O)C(F)(F)F)C(C)(C#N)CC3(C)C)=CC2(C)C)N=C1/C=C1/CC(C)(C)C(=O)N1` (stereo not given), the GI50 in the assay with SK-MEL-28 is 51.2 µM (inactive); in the assay on LOX IMVI, 17.9 µM (inactive); in the assay with SF-268, 5.79 µM (inactive); with UACC-257, 20.6 µM (inactive); in the assay on NCI-H522, 5.96 µM (inactive); with KM12 it was 5.77 µM (inactive). The GI50 is 23.1 µM (inactive) in the assay with MDA-MB-231; 13.8 µM (inactive) in the assay with SK-MEL-5; 7.38 µM (inactive) in the assay on OVCAR-4; 27.2 µM (inactive) with BT-549; 55.6 µM (inactive) in the assay with A498; 3.11 µM (inactive) in the assay with K562. In addition, the GI50 in the assay on HOP-62 was 9.44 µM (inactive); with SNB-19, 52.5 µM (inactive); in the assay on OVCAR-5 it was 57.5 µM (inactive); in the assay with OVCAR-3, 7.62 µM (inactive); in the assay with ACHN it was 23.7 µM (inactive); in the assay on SF-539, 24.8 µM (inactive). Also, in the assay with RXF 393, the GI50 was 18.6 µM (inactive).
